From patent US5519012A, “Inclusion complexes of optically active 1,4-dihydropyridines with methyl-β-cyclodextrin” (LEK, tovarna farmacevtskih in kemicnih izdelkov, d.d., …, priority 1992, dated 1996)
In brackets after ≈: the same amount, converted by molar mass. Where a name gives a salt, the structure may show the parent alone.

Experiments:
[1] = Water solubility of racemic and optically active dihydropyridines, free or bound in inclusion complexes (room temperature, filtrates of saturated solutions, liquid chromatography); conditions: for Water solubility of particular enantiomers (in words): (-) compared with (+) nicardipine.HCl; for Water solubility, complex. HE-β-CD: bound in inclusion complex with HE-β-CD (2-hydroxyethyl-cyclodextrin); for Water solubility, complex. HP-β-CD: bound in inclusion complex with HP-β-CD (2-hydroxypropyl-cyclodextrin); for Water solubility, complex. Me-β-CD: bound in inclusion complex with Me-β-CD; for Water solubility, complex. β-CD: bound in inclusion complex with β-CD; for Water solubility, uncomplex.: free form
physchem = conditions: water
[2] = one enantiomer versus the other; literature; cited from earlier work
[3] = by means of DIMEB (heptakis-(2,6-di-O-dimethyl)-β-cyclodextrin); cited from earlier work

Water solubility, complex. HE-β-CD ([1]; room temperature) [mg/mL]	Water solubility, complex. HP-β-CD ([1]; room temperature) [mg/mL]	Water solubility, complex. Me-β-CD ([1]; room temperature) [mg/mL]	Water solubility, complex. β-CD ([1]; room temperature) [mg/mL]	solubility (physchem) [mg/mL]	SMILES	also measured
–	–	–	–	0.0006 (≈ 1.66 µM)	CCOC(=O)C1=C(C)NC(C)=C(C(=O)OC)C1c1cccc([N+](=O)[O-])c1 (racemic) [(±)nitrendipine, 3-ethyl-5-methyl-1,4-dihydro-2,6-dimethyl-4-(3-nitrophenyl)-3,5-pyridinedicarboxylate]	–
–	–	–	–	0.0008 (≈ 2.08 µM)	CCOC(=O)C1=C(C)NC(C)=C(C(=O)OC)C1c1cccc(Cl)c1Cl (centres unmarked) [felodipine, ethylmethyl-1,4-dihydro-2,6-dimethyl-4-(2,3-dichlorophenyl)-3,5-pyridinedicarboxylate]	–
53.8	97.9	145.8	54.8	1.5	COC(=O)C1=C(C)NC(C)=C(C(=O)OCCN(C)Cc2ccccc2)C1c1cccc([N+](=O)[O-])c1 (racemic) [(±)nicardipine.HCl, 2-(N-benzyl-N-methyl-amino)-ethylmethyl-2,6-dimethyl-4-(3-nitrophenyl) -1,4-dihydropyridine-3,5-dicarboxylatehydrochloride]	–

More lines, now with the values behind:

SMILES	Water solubility, complex. HE-β-CD ([1]; room temperature) [mg/mL]	Water solubility, complex. HP-β-CD ([1]; room temperature) [mg/mL]	Water solubility, complex. Me-β-CD ([1]; room temperature) [mg/mL]	Water solubility, complex. β-CD ([1]; room temperature) [mg/mL]	solubility (physchem) [mg/mL]	also measured
COC(=O)C1=C(C)NC(C)=C(C(=O)OCCN(C)Cc2ccccc2)C1c1cccc([N+](=O)[O-])c1 (single isomer, unassigned; (-)) [(-)nicardipine.HCl]	54.2	68.0	127.4	15.6	–	Water solubility of particular enantiomers (in words) [1]: different water solubilities; Water solubility, uncomplex. ([1]; room temperature): 0.1 mg/mL; Water solubility, complex. HP-β-CD (molar ratio 1:2) ([1]; molar ratio of the complex (-)NC.HCl:HP CD amounts to 1:2, room temperature): 130.0 mg/mL
CCOC(=O)C1=C(COCCN)NC(C)=C(C(=O)OC)C1c1ccccc1Cl (centres unmarked) [amlodipine besylate, 3-ethyl-5-methyl-2-[(2-aminoethoxy)methyl]-4-(2-chlorophenyl) 1,4-dihydro-6-methyl-3,5-pyridinedicarboxylate-monobenzensulfonate]	4.5	17.0	25.0	10.0	1.1	Water solubility (in words) ([1]; comparison in words, inclusion complexes with Me-β-CD): improved water solubility
COC(=O)C1=C(C)NC(C)=C(C(=O)OCCN(C)Cc2ccccc2)C1c1cccc([N+](=O)[O-])c1 (single isomer, unassigned; (+)) [(+)nicardipine.HCl]	52.7	59.9	133.1	15.8	–	Water solubility of particular enantiomers (in words) [1]: different water solubilities; Water solubility, uncomplex. ([1]; room temperature): 0.4 mg/mL
CCOC(=O)C1=C(COCCN)NC(C)=C(C(=O)OC)[C@H]1c1ccccc1Cl (single isomer, unassigned) [R-(-) isomer of amlodipine]	–	–	–	–	–	activity relative to the other enantiomer [2]: substantially higher activity
COC(=O)C1=C(C)NC(C)=C(C(=O)OCCN(C)Cc2ccccc2)C1c1cccc([N+](=O)[O-])c1 (single isomer, unassigned; (+)) [(+) nicardipine]	–	–	–	–	–	activity relative to the other enantiomer [2]: three times higher activity
COc1ccc2c(c1)c(CC(=O)O)c(C)n2C(=O)c1ccc(Cl)cc1 [indometacin]	–	–	–	–	–	enhancement of water solubility [3]: 20.4 times
